Test results taken from US11008323B2, “Substituted tricyclic 1,4-benzodiazepinone derivatives as allosteric modulators of group II metabotropic glutamate receptors” (Domain Therapeutics, priority 2015, dated 2021).

target: T1, human mGluR3 (hmGluR3) (Homo sapiens, UniProt Q14832); assay: Human mGluR3 positive allosteric modulator evaluation using Ca++ functional assay; type: cell-based; settings: hmGluR3 transiently over-expressed in HEK-293 cells; stimulated by EC50 glutamate concentration; intracellular Ca2+ (Fluo4AM, FLIPR Tetra)
T1 construct: expressed in transfected cells; host or cells: HEK-293 cells, transient co-transfection by electroporation
Procedure: Compounds of the present invention were tested successively for their agonist and positive allosteric modulator activities on human mGluR3 (hmGluR3) transiently over-expressed in HEK-293 cells. Compounds exert agonist activity if they are able to activate hmGluR3 by themselves, i.e., in absence of the endogenous agonist glutamate; and they exert positive allosteric modulator activity if they increase the action of the endogenous agonist glutamate.
HEK-293 cells were maintained in Modified Eagle's Medium supplemented with 10% Foetal Calf Serum, 1% Penicillin/Streptomycin and 1% non-essential amino acids at 37° C./5% CO2.
Cells were co-transfected by electroporation with four DNA plasmids encoding hmGluR3, a chimeric G protein allowing redirection of the activation signal toward intracellular calcium pathway, and two glutamate transporters so as to decrease extracellular glutamate levels and avoid receptor desensitization (Brabet I et al., Neuropharmacology 37(8), 1043-51, 1998). After transfection, cells were seeded in 75 cm^2 culture flasks, and cultured for 24 h.
Receptor activity was detected by changes in intracellular calcium measured using the fluorescent Ca^2+ sensitive dye, Fluo4AM (Molecular Probes).
The day of the assay, medium was aspirated and replaced during 3 hrs by freshly prepared buffer B (HBSS 1×, Hepes 20 mM, MgSO4-7H2O 1 mM, Na2CO3 3.3 mM, CaCl2-2H2O 1.3 mM, 0.5% BSA, Probenecid 2.5 mM). Then, cells were loaded at 37° C./5% CO2 for 1.5 hrs with buffer B containing 1 μM Fluo4AM, 0.1 mg/mL Pluronic Acid, 7 μg/mL Glutamate Pyruvate Transaminase and 2 mM sodium pyruvate. Afterwards cells were washed with buffer B. Cells were then detached from the 75 cm^2 culture flasks with Accutase® (5 min incubation at 37° C.), centrifuged (5 min at 840 rpm), resuspended in buffer B and finally seeded at a density of 30,000 cells/well in black-walled clear-bottom 384-well plates. Addition of compounds on cells and intracellular Ca^2+ measurements (excitation 485 nm, emission 525 nm) were performed by the fluorescence microplate reader FLIPR Tetra (Molecular Devices).
Agonist and positive allosteric modulator activities of compounds were consecutively evaluated on the same cells plate. Agonist activity was first tested during 10 min with the addition of compound alone on the cells. Then, the cells were stimulated by an EC50 glutamate concentration and fluorescence was recorded for additional 3 min. EC50 glutamate concentration is the concentration giving 50% of the maximal glutamate response. Agonist and/or positive allosteric modulator activity(ies) were evaluated in comparison to basal signal or signal evoked by EC50 glutamate concentration alone, respectively.
For potency determination, a dose-response test was performed using 20 concentrations of each compound of the invention. Dose-response curves were fitted using the sigmoïdal dose-response (variable slope) analysis in XLfit Scientific Curve Fitting for Excel (IDBS). EC50 of agonist/EC50 of positive allosteric modulator activity(ies) were calculated. Dose-response experiments were all performed in duplicate, two times independently.

T1 sequence (Q14832 23-879): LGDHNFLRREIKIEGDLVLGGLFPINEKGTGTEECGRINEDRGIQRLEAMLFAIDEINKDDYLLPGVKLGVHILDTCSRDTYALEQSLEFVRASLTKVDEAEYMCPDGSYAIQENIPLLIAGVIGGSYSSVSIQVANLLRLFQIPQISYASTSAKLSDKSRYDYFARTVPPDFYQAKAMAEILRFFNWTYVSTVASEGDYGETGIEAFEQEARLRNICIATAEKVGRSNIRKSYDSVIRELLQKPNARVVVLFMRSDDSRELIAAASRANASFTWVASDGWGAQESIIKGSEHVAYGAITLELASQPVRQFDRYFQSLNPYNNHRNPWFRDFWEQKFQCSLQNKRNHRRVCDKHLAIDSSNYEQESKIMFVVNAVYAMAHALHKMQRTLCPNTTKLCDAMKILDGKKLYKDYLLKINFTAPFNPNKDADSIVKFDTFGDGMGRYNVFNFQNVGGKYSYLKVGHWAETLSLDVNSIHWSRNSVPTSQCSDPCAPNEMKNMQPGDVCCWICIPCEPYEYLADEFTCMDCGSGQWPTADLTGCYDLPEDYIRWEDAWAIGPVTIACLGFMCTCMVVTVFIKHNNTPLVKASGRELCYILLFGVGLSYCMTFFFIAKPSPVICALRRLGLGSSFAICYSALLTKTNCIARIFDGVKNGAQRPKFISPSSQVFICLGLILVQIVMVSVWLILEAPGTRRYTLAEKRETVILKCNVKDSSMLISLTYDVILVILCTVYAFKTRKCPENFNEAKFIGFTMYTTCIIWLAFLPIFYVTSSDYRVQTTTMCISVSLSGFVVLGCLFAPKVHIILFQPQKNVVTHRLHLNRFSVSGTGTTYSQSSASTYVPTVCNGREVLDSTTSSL

**Q.** `CN1C(=O)c2cccn2-c2cc(-c3ccc4nccn4c3)ccc2C12CC2` [Example 41, 5-Methyl-9-(imidazo[1,2-a]pyridin-6-yl)-spiro[benzo[f]pyrrolo[1,2-a][1,4]diazepine-6,1′-cyclopropan]-4(5H)-one] was tested. Which EC50 did it give?
**A.** The EC50 was less than 100 nM.

**Q.** Which EC50 does the source give for `Cc1ncccc1-c1ccc2c(c1)-n1cc(-c3ccc(Cl)cc3)cc1C(=O)N(C)C21CC1` [Example 149] here?
**A.** Its EC50 is 100 to 1000 nM.

**Q.** Which EC50 does the source give for `Cc1ncccc1-c1ccc2c(c1)-n1cc(-c3cnc[nH]3)cc1C(=O)N(C)C21CC1` [Example 183] here?
**A.** Its EC50 is less than 100 nM.

**Q.** How did the EC50 turn out when `Cc1cnccc1-c1ccc2c(c1)-n1cccc1C(=O)N(C)C21CC1` [Example 38, 5-Methyl-9-(3-methylpyridin-4-yl)-spiro[benzo[f]pyrrolo[1,2-a][1,4]diazepine-6,1′-cyclopropan]-4(5H)-one] was run?
**A.** The EC50 was 100 to 1000 nM.

**Q.** How did the EC50 turn out when `Cc1ncccc1-c1ccc2c(c1)-n1cccc1C(=O)N(C)C2(C)C` [Example 223, 5,6,6-Trimethyl-9-(2-methyl-pyridin-3-yl)-5,6-dihydro-benzo[f]pyrrolo[1,2-a][1,4]diazepin-4-one] was run?
**A.** Its EC50 is 100 to 1000 nM.

**Q.** For `CCc1ncccc1-c1ccc2c(c1)-n1cc(-c3ccccc3)cc1C(=O)N(C)C21CC1` [Example 99, 5-Methyl-2-phenyl-9-(2-ethyl-pyridin-3-yl)-spiro[benzo[f]pyrrolo[1,2-a][1,4]diazepine-6,1′-cyclopropan]-4(5H)-one], which EC50 is on record?
**A.** The EC50 was 100 to 1000 nM.

**Q.** How did the EC50 turn out when `Cc1ncccc1-c1cc2c(cc1F)C1(CC1)N(C)C(=O)c1cccn1-2` [Example 77, 8-Fluoro-5-methyl-9-(2-methyl-pyridin-3-yl)-spiro[benzo[f]pyrrolo[1,2-a][1,4]diazepine-6,1′-cyclopropan]-4(5H)-one] was run?
**A.** Its EC50 is 100 to 1000 nM.

**Q.** With `Cc1ncccc1-c1ccc2c(c1)N1CCCC1C(=O)N(C)C21CC1` (stereo not drawn) [Example 209, 5-Methyl-9-(2-methylpyridin-3-yl)-1,2,3,3a-tetrahydro-spiro[benzo[f]pyrrolo[1,2-a][1,4]diazepine-6,1′-cyclopropan]-4(5H)-one] as the compound, how does the EC50 read?
**A.** The EC50 was greater than 1000 nM.

**Q.** Which EC50 does the source give for `Cc1ncccc1-c1ccc2c(c1)-n1cc(C(=O)C3CCCC3)cc1C(=O)N(C)C21CC1` [Example 194] here?
**A.** Its EC50 is 100 to 1000 nM.

**Q.** How did the EC50 turn out when `CN1C(=O)c2c(Cl)ccn2-c2cc(Br)ccc2C12CC2` [Example 6, 9-Bromo-3-chloro-5-methyl-spiro[benzo[f]pyrrolo[1,2-a][1,4]diazepine-6,1′-cyclopropan]-4(5H)-one] was run?
**A.** Its EC50 is greater than 1000 nM.

**Q.** How did the EC50 turn out when `Cc1ncccc1-c1cccc2c1-n1cccc1C(=O)N(C)C21CC1` [Example 92, 10-(2-Methyl-pyridin-3-yl)-5-methyl-spiro[benzo[f]pyrrolo[1,2-a][1,4]diazepine-6,1′-cyclopropan]-4(5H)-one] was run?
**A.** The EC50 was greater than 1000 nM.

**Q.** `CN1C(=O)c2cc(-c3ccccc3)cn2-c2cc(-c3cncnc3)ccc2C12CC2` [Example 104, 5-Methyl-2-phenyl-9-(pyrimidin-5-yl)-spiro[benzo[f]pyrrolo[1,2-a][1,4]diazepine-6,1′-cyclopropan]-4(5H)-one] was tested. Which EC50 did it give?
**A.** Its EC50 is 100 to 1000 nM.

**Q.** Which EC50 does the source give for `CN1C(=O)c2cc(-c3ccccc3)cn2-c2cc(-c3ccccn3)ccc2C12CC2` [Example 111, 5-Methyl-2-phenyl-9-(pyridin-2-yl)-spiro[benzo[f]pyrrolo[1,2-a][1,4]diazepine-6,1′-cyclopropan]-4(5H)-one] here?
**A.** Its EC50 is less than 100 nM.

**Q.** With `CN1Cc2ccc(-c3ccc(N)nc3)cc2-n2cc(-c3ccccc3)cc2C1=O` [Example 165, 9-(6-Amino-pyridin-3-yl)-5-methyl-2-phenyl-5,6-dihydro-benzo[f]pyrrolo[1,2-a][1,4]diazepin-4-one] as the compound, how does the EC50 read?
**A.** Its EC50 is 100 to 1000 nM.

**Q.** For `CNc1ccc(-c2ccc3c(c2)-n2cc(-c4ccccc4)cc2C(=O)N(C)C32CC2)cn1` [Example 118, 5-Methyl-2-phenyl-9-(6-methylamino-pyridin-3-yl)-spiro[benzo[f]pyrrolo[1,2-a][1,4]diazepine-6,1′-cyclopropan]-4(5H)-one], which EC50 is on record?
**A.** The EC50 was less than 100 nM.

**Q.** `CN1C(=O)c2cccn2-c2cc(-c3ccc(N4CCCCC4)nc3)ccc2C12CC2` [Example 43, 5-Methyl-9-(3,4,5,6-tetrahydro-2H-[1,2′]bipyridinyl-5′-yl)-spiro[benzo[f]pyrrolo[1,2-a][1,4]diazepine-6,1′-cyclopropan]-4(5H)-one] was tested. Which EC50 did it give?
**A.** Its EC50 is greater than 1000 nM.

**Q.** Which EC50 does the source give for `CCc1ccc(-c2ccc3c(c2)-n2cc(-c4ccccc4)cc2C(=O)N(C)C32CC2)cn1` [Example 112, 5-methyl-2-phenyl-9-(6-ethylpyridin-3-yl)-spiro[benzo[f]pyrrolo[1,2-a][1,4]diazepine-6,1′-cyclopropan]-4(5H)-one] here?
**A.** The EC50 was less than 100 nM.

**Q.** Which EC50 does the source give for `Cc1cc2n(c1)-c1cc(-c3ccc(C)nc3)ccc1C1(CC1)N(C)C2=O` [Example 198] here?
**A.** The EC50 was less than 100 nM.

**Q.** For `Cc1ncccc1-c1ccc2c(c1)-n1cc(Br)cc1C(=O)N(C)C21CC1` [Example 17, 2-Bromo-5-methyl-9-(2-methyl-pyridin-3-yl)-spiro[benzo[f]pyrrolo[1,2-a][1,4]diazepine-6,1′-cyclopropan]-4(5H)-one], which EC50 is on record?
**A.** Its EC50 is 100 to 1000 nM.

**Q.** Which EC50 does the source give for `CN1C(=O)c2cc(-c3ccccc3)nn2-c2cc(-c3ccc(Cl)cc3)ccc2C12CC2` [Example 135, 9-(4-Chloro-phenyl)-5-methyl-2-phenyl-spiro[benzo[f]pyrazolo[1,5-a][1,4]diazepine-6,1′-cyclopropan]-4(5H)-one] here?
**A.** Its EC50 is greater than 1000 nM.

**Q.** For `CCC1c2ccc(Br)cc2-n2cccc2C(=O)N1C` (stereo not drawn) [Example 214, 9-Bromo-5-methyl-6-ethyl-5,6-dihydro-benzo[f]pyrrolo[1,2-a][1,4]diazepin-4-one], which EC50 is on record?
**A.** The EC50 was greater than 1000 nM.

**Q.** How did the EC50 turn out when `COCc1cc2n(c1)-c1cc(-c3ccc(C)nc3)ccc1C1(CC1)N(C)C2=O` [Example 205] was run?
**A.** The EC50 was less than 100 nM.

**Q.** With `Cc1ncccc1-c1ccc2c(c1)-n1cc(N(C)C)cc1C(=O)N(C)C21CC1` [Example 154] as the compound, how does the EC50 read?
**A.** The EC50 was 100 to 1000 nM.

**Q.** `Cc1ccc(-c2ccc3c(c2)-n2cc(Br)cc2C(=O)N(C)C32CC2)cn1` [Example 18, 2-Bromo-5-methyl-9-(6-methyl-pyridin-3-yl)-spiro[benzo[f]pyrrolo[1,2-a][1,4]diazepine-6,1′-cyclopropan]-4(5H)-one] was tested. Which EC50 did it give?
**A.** The EC50 was less than 100 nM.

**Q.** How did the EC50 turn out when `Cc1ccc(-c2ccc3c(c2)-n2cc(-c4ccnn4C)cc2C(=O)N(C)C32CC2)cn1` [Example 159] was run?
**A.** Its EC50 is less than 100 nM.

**Q.** For `CN1C(=O)c2cccn2-c2cc(C3=CCN(c4ccncn4)CC3)ccc2C12CC2` [Example 47, 5-Methyl-9-(1-pyrimidin-4-yl-1,2,3,6-tetrahydro-pyridin-4-yl)-spiro[benzo[f]pyrrolo[1,2-a][1,4]diazepine-6,1′-cyclopropan]-4(5H)-one], which EC50 is on record?
**A.** The EC50 was 100 to 1000 nM.

**Q.** How did the EC50 turn out when `CCN1Cc2ccc(-c3cccnc3C)cc2-n2cc(-c3ccccc3)nc2C1=O` [Example 167, 5-Ethyl-9-(2-methylpyridin-3-yl)-2-phenyl-5,6-dihydro-4H-benzo[f]imidazo[1,2-a][1,4]diazepin-4-one] was run?
**A.** Its EC50 is greater than 1000 nM.

**Q.** For `CN1C(=O)c2cc(-c3ccccc3)cn2-c2cc(-c3ccncc3)ccc2C12CC2` [Example 102, 5-Methyl-2-phenyl-9-(pyridin-4-yl)-spiro[benzo[f]pyrrolo[1,2-a][1,4]diazepine-6,1′-cyclopropan]-4(5H)-one], which EC50 is on record?
**A.** The EC50 was less than 100 nM.

**Q.** For `CN(C)c1ccc2c(c1)-n1cc(-c3ccccc3)cc1C(=O)N(C)C21CC1` [Example 115, 9-Dimethylamino-5-methyl-2-phenyl-spiro[benzo[f]pyrrolo[1,2-a][1,4]diazepine-6,1′-cyclopropan]-4(5H)-one], which EC50 is on record?
**A.** The EC50 was greater than 1000 nM.

**Q.** For `Cc1ccc(-c2ccc3c(c2)-n2cccc2C(=O)N(C)C32CC2)c(C)n1` [Example 56, 5-Methyl-9-(2,6-dimethylpyridin-3-yl)-spiro[benzo[f]pyrrolo[1,2-a][1,4]diazepine-6,1′-cyclopropan]-4(5H)-one], which EC50 is on record?
**A.** Its EC50 is less than 100 nM.

**Q.** With `Cc1ncccc1-c1ccc2c(c1)-n1cc(C(F)F)cc1C(=O)N(C)C21CC1` [Example 201] as the compound, how does the EC50 read?
**A.** Its EC50 is less than 100 nM.

**Q.** Which EC50 does the source give for `CC1c2ccc(-c3ccc(N(C)C)nc3)cc2-n2cccc2C(=O)N1C` (stereo not drawn) [Example 219, 9-(6-Dimethylamino-pyridin-3-yl)-5,6-dimethyl-5,6-dihydro-benzo[f]pyrrolo[1,2-a][1,4]diazepin-4-one] here?
**A.** The EC50 was less than 100 nM.

**Q.** With `CN1C(=O)c2cccn2-c2cc(-c3ccncc3)ccc2C12CC2` [Example 22, 5-Methyl-9-(pyridin-4-yl)-spiro[benzo[f]pyrrolo[1,2-a][1,4]diazepine-6,1′-cyclopropan]-4(5H)-one] as the compound, how does the EC50 read?
**A.** Its EC50 is 100 to 1000 nM.
